# Measurements reported in patent US20230407243A1, “GENETIC PLATFORM TO INVESTIGATE THE FUNCTIONS OF BACTERIAL DRUG EFFLUX PUMPS” (priority 2022, published 2023).
# Read-outs that look alike come from different tables or passages of the source.
# How the values were obtained:
# Format in all cases: cell-based, Escherichia coli
# [1] = system: ΔtolC; conditions: for PABN MICa Alone: PAβN alone, one value per checkerboard
# Protocol: (§1) Synergy measurement using checkerboard analysis was performed in 96-well microtiter plates using the microdilution broth method, according to CLSI guidelines (Patel J. B., 2015). The cell inocula were prepared using the colony resuspension method. The minimum inhibitory concentrations (MICs) were defined as the lowest concentration that provided no growth, as determined by measurement of the OD600nm using a Synergy H1 microplate reader (BioTek). Susceptibility testing was performed in MHB II with a final volume of 100 μL. PAI3N (Bachem Americas) was solubilized in MHB II. […] Solvent controls were included in each plate.
# (§2) The Fractional Inhibitory Concentration Index (FICI) was used to assess the synergy of PAI3N in combination with different antibiotics. The FICI represents the ΣFIC of each drug. The FICI for each drug was calculated using the following formula: FICI=FICA+FICB=(CA/MICA)+(CB/MICB). Where MICA and MICB are the MICs of drugs A (PAI3N/NMP) and B (antibiotic) alone, and CA and CB are the MICs of the drugs in combination. The effects of PAβN or NMP in combination with antibiotics were classified as: synergistic (FICI<0.5), additive (FICI>0.5-1.0), indifferent (FICI>1.0-2.0), and antagonistic (FICI>2.0). Fold increases in resistance provided by efflux pumps were calculated by dividing the MIC values of strains expressing efflux pumps by the MIC value of EKO-35.
# [2] = system: EKO-35; conditions: for PABN MICa Alone: PAβN alone, one value per checkerboard
# Protocol: as §1, §2
# [3] = system: EKO-35 acrBD408A; conditions: for PABN MICa Alone: PAβN alone, one value per checkerboard
# Protocol: as §1, §2
# [4] = system: wild-type E. coli K-12
# Protocol: as §1, §2
# [5] = system: EKO-35 araC::acrD; experiment: MIC susceptibility profiling, efflux platform
# Procedure, shortened: (§3)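 Steps: LB overnight culture at 37 °C; resuspension in PBS to OD600 ~1.0; 1/2000 dilution in MHB II; addition to 2-fold serial compound dilutions (duplicate); 18 h shaking incubation at 37 °C; OD600 read, with pre-read subtracted.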
# [6] = system: EKO-35 araC::mdtEF; experiment: MIC susceptibility profiling, efflux platform
# Procedure, shortened: as §3
# [7] = system: EKO-35 araC::mdtBC; experiment: MIC susceptibility profiling, efflux platform
# Procedure, shortened: as §3
# [8] = system: EKO-35 araC::emrKY; experiment: MIC susceptibility profiling, efflux platform
# Procedure, shortened: as §3
# [9] = system: EKO-35 araC::mexCD (MexCD from P. aeruginosa); experiment: MIC susceptibility profiling, efflux platform
# Procedure, shortened: as §3
# [10] = system: EKO-35 araC::acrBD408A; experiment: MIC susceptibility profiling, efflux platform
# Procedure, shortened: as §3
# [11] = system: EKO-35 araC::acrB; experiment: MIC susceptibility profiling, efflux platform
# Procedure, shortened: as §3
# [12] = strain EKO-35, NMP + antibiotic
# [13] = strain EKO-35 acrBD408A, NMP + antibiotic
compound,measurement,setting,value
CC[n+]1c(-c2ccccc2)c2cc(N)ccc2c2ccc(N)cc21 [ethidium bromide],Effect,"[1]; strain ΔtolC, NMP + antibiotic",Synergistic (Synergy (FICI ≤0.5))
same,FICI,"[1]; strain ΔtolC, NMP + antibiotic",0.281
same,MICb Alone,"[1]; strain ΔtolC, antibiotic alone",7.81 µg/mL
same,MICb Combined,"[1]; strain ΔtolC, antibiotic in combination with NMP",1.95 µg/mL
same,FICI,"[1]; ΔtolC, NMP + antibiotic",0.281
same,FICI,"[2]; EKO-35, NMP + antibiotic",2.000
same,Effect,[2]; [12],— (indifferent (FICI >1.0))
same,FICI,[2]; [12],2.000
same,MICb Alone,"[2]; strain EKO-35, antibiotic alone",0.244 µg/mL
same,MICb Combined,"[2]; strain EKO-35, antibiotic in combination with NMP",0.244 µg/mL
same,FICI,"[3]; EKO-35 acrBD408A, NMP + antibiotic",0.750
same,Effect,[3]; [13],Additive (additive (FICI >0.5-1.0))
same,FICI,[3]; [13],0.750
same,MICb Alone,"[3]; strain EKO-35 acrBD408A, antibiotic alone",0.488 µg/mL
same,FICI,"[4]; K-12, NMP + antibiotic",0.375
same,Effect,"[4]; strain K-12, NMP + antibiotic",Synergistic (Synergy (FICI ≤0.5))
same,FICI,"[4]; strain K-12, NMP + antibiotic",0.375
same,MICb Alone,"[4]; strain K-12, antibiotic alone",500 µg/mL
same,MICb Combined,"[4]; strain K-12, antibiotic in combination with NMP",125 µg/mL
same,Fold change of MICs,[5]; EKO-35 araC::acrD compared to EKO-35,2 fold
same,MIC,"[5]; Escherichia coli, Table 13A, non-porinated, technical duplicate, read-out: Minimum Inhibitory Concentration, EKO-35 araC::acrD",0.391 µg/mL
same,Fold change of MICs,[6]; EKO-35 araC::mdtEF compared to EKO-35,8 fold
same,MIC,"[6]; Escherichia coli, Table 13A, non-porinated, technical duplicate, read-out: Minimum Inhibitory Concentration, EKO-35 araC::mdtEF",1.56 µg/mL
same,Fold change of MICs,[7]; EKO-35 araC::mdtBC compared to EKO-35,1 fold
same,MIC,"[7]; Escherichia coli, Table 13B, non-porinated, technical duplicate, read-out: Minimum Inhibitory Concentration, EKO-35 araC::mdtBC",0.195 µg/mL
same,Fold change of MICs,[8]; EKO-35 araC::emrKY compared to EKO-35,1 fold
same,MIC,"[8]; Escherichia coli, Table 13B, non-porinated, technical duplicate, read-out: Minimum Inhibitory Concentration, EKO-35 araC::emrKY",0.195 µg/mL
same,Fold change of MICs,[9]; EKO-35 araC::mexCD compared to EKO-35,8 fold
same,MIC,"[9]; Table 13B, non-porinated, technical duplicate, read-out: Minimum Inhibitory Concentration, EKO-35 araC::mexCD",1.56 µg/mL
same,Fold change of MICs,[10]; EKO-35 araC::acrBD408A compared to EKO-35,2 fold
same,MIC,"[10]; Escherichia coli, Table 13B, non-porinated, technical duplicate, read-out: Minimum Inhibitory Concentration, EKO-35 araC::acrBD408A",0.391 µg/mL
same,Fold change of MICs,[11]; EKO-35 araC::acrB compared to EKO-35,64 fold
same,MIC,"[11]; Escherichia coli, Table 13A, non-porinated, technical duplicate, read-out: Minimum Inhibitory Concentration, EKO-35 araC::acrB",12.5 µg/mL
phenylalanine-arginine-β-naphthylamide [PAβN],PABN MICa Alone,[1]; ΔtolC,64 µg/mL
same,PABN MICa Alone,"[1]; ΔtolC, listed as PABN",128 µg/mL
same,PABN MICa Combined,"[1]; ΔtolC, with Ciprofloxacin",32 µg/mL
same,PABN MICa Combined,"[1]; ΔtolC, with Erythromycin",8 µg/mL
same,PABN MICa Combined,"[1]; ΔtolC, with Fusidic Acid",16 µg/mL
same,PABN MICa Combined,"[1]; ΔtolC, with Linezolid",64 µg/mL
same,PABN MICa Combined,"[1]; ΔtolC, with Novobiocin",16 µg/mL
same,PABN MICa Combined,"[1]; ΔtolC, with Oxacillin",8 µg/mL
same,PABN MICa Alone,[2]; EKO-35,64 µg/mL
same,PABN MICa Alone,"[2]; EKO-35, listed as PABN",128 µg/mL
same,PABN MICa Combined,"[2]; EKO-35, with Ciprofloxacin",4 µg/mL
same,PABN MICa Combined,"[2]; EKO-35, with Erythromycin",8 µg/mL
same,PABN MICa Combined,"[2]; EKO-35, with Fusidic Acid",16 µg/mL
same,PABN MICa Combined,"[2]; EKO-35, with Linezolid",32 µg/mL
same,PABN MICa Combined,"[2]; EKO-35, with Novobiocin",8 µg/mL
same,PABN MICa Combined,"[2]; EKO-35, with Oxacillin",4 µg/mL
same,"susceptibility to the efflux pump inhibitor alone, efflux-deficient strains vs wild-type","[2]; efflux-deficient strains EKO-35, EKO-35 acrBD408A, ΔtolC","exhibits antibacterial activity, which is enhanced upon efflux inactivation"
same,PABN MICa Alone,[3]; EKO-35 acrBD408A,64 µg/mL
same,PABN MICa Alone,"[3]; EKO-35 acrBD408A, listed as PABN",128 µg/mL
same,PABN MICa Combined,"[3]; EKO-35 acrBD408A, with Ciprofloxacin",8 µg/mL
same,PABN MICa Combined,"[3]; EKO-35 acrBD408A, with Erythromycin",8 µg/mL
same,PABN MICa Combined,"[3]; EKO-35 acrBD408A, with Fusidic Acid",8 µg/mL
same,PABN MICa Combined,"[3]; EKO-35 acrBD408A, with Linezolid",32 µg/mL
same,PABN MICa Combined,"[3]; EKO-35 acrBD408A, with Novobiocin",8 µg/mL
same,PABN MICa Combined,"[3]; EKO-35 acrBD408A, with Oxacillin",16 µg/mL
same,PABN MICa Alone,"[4]; K-12, PAβN alone, one value per checkerboard",256 µg/mL
same,PABN MICa Combined,"[4]; K-12, with Ciprofloxacin",64 µg/mL
same,PABN MICa Combined,"[4]; K-12, with Erythromycin",16 µg/mL
same,PABN MICa Combined,"[4]; K-12, with Fusidic Acid",32 µg/mL
same,PABN MICa Combined,"[4]; K-12, with Linezolid",16 µg/mL
same,PABN MICa Combined,"[4]; K-12, with Novobiocin",32 µg/mL
same,PABN MICa Combined,"[4]; K-12, with Oxacillin",32 µg/mL
